Like-named read-outs stand apart in the source and are kept apart here.
Legend:
[1] = Homogeneity of cured silicone elastomer incorporating the cyclodextrin; assay type: physicochemical; settings: hydrosilylation-cured PDMS elastomer, procedure analogous to CH95-70
Excerpt: 0.802 g (0.304 mmol) CH70, dimethylvinylsilyl-β-cyclodextrin, and 52.0 g of a silicon hydride terminated polydimethylsiloxane fluid with a viscosity of approx. 1000 mPa·s, are placed in a suitable plastic cup with a lid along with a magnetic stir bar. The cup is blanketed with nitrogen gas and then closed to maintain an inert atmosphere while stirring. The materials are stirred until the cyclodextrin is fully dissolved. To this solution, 22.9 g of a vinyl terminated polydimethylsiloxane fluid with a viscosity of approx. 100,000 mPa·s, are added and the contents of the plastic cup are hand-mixed with a stirring rod. 0.0757 g of a platinum catalyst solution, divinyl tetramethyl disiloxane platinum complex diluted in vinyl terminated polysiloxane (1% w/w Pt content), are added to the mixture and hand-mixed, followed by further mixing in a FlackTek, Inc. Speedmixer™, model DAC 1100.2 VAC, at 1250 rpm for 1 minute under vacuum (95 mbar pressure, to degas the mixture).
The composition is then placed into a “plate and frame” mold lined with a suitable release liner. The composition and mold are put into an oven preheated at 80° C. for 1 h to cure into a rubber slab produced are approximately 6 in X 6 in X 0.072 in. The cured elastomer specimen is clear and colorless. […]

[2] = Solubility of silylated cyclodextrins in silicone fluid BELSIL DM 5
Experimental: Such a homogneous mixture can also be formed by using a magnetic stirrer, overhead stirrer, Speedmixer™ or similar mixing techniques.
Above experiment was repeated with a native γ-CD CAVAMAX® W8, which was not modified with silylation.
Silylated β-cyclodextrin CH77 with low number of silyl groups (7.95 TMS and 3.23 VDMS groups on average) was evaluated to check the solubility in DM 5 at 10 wt. %.

[3] = Thermogravimetric analysis (TGA) of evaporation of active, pure versus silyl-CD complex; assay type: physicochemical
Excerpt: Complex formation provides advantage for practical use of these guest molecules, many of which are pharmaceutical or cosmetic actives. For example, complexation slows down the evaporation of actives making the actives last longer. This is confirmed by Thermogravimetric analysis (TGA). Thermogravimetric analysis results for pure geraniol and its 1:1 complex with trimethylsilyl-β-cyclodextrin CH62 are shown in FIG. 4.
The complex with TMS-β-CD CH62 contains approximately 6 wt. % Geraniol. […] Thus, complexation with silyl-CD slows down loss of geraniol.
In FIG. 5 TGA thermograms show similar observations for complexation between a silyl-CD MG 15 and alpha-pinene 1:1 compared with pure alpha-pinene.
Pure pinene completely evaporates by 140° C., but it takes up to approximately 200° C. for the pinene to completely evaporate from the complex.

[4] = Release of geraniol from cured elastomer, weight loss in oven at 60° C.; assay type: physicochemical
Experimental: A cured elastomer/CD/geraniol sample (VP141-2-1) containing 10:1 mole ratio of geraniol to CD was prepared by using the following procedure: Trimethylsilyl-β-cyclodextrin CH62 (1.41 g, 0.59 mmol) and geraniol (0.90 g, 5.9 mmol) were added to a plastic cup and mixed using a Speedmixer™ for 2 min at 2000 rpm (mixing was repeated 2-3 times). The mixture appeared almost homogeneous. SiH terminated linear silicone of approximate formula MHD220MH and approximate viscosity 1000 mPa·s (13.95 g), SiH terminated and pendant SiH containing silicone of approximate formula MHD95.5DH9.6MH and having an approximate viscosity of 165 mPa·s (0.71 g), vinyl terminated linear silicone of approximate viscosity 1000 mPa·s (22.31 g) and platinum catalyst solution (0.078 g) were added to the cup and mixed using Speedmixer™ for 2 min at 2000 rpm (x 3-4 times). The resulted clear and colorless mixture was left in the tightly closed cup for 24-36 h to cure at room temperature to get a cured elastomer sample.
Then, vinyl terminated linear silicone of approximate viscosity 1000 mPa·s(23.09 g) and platinum catalyst solution (0.075 g) were added to the cup and mixed using Speedmixer™ for 2 min at 2000 rpm (mixing was repeated 2-3 times). The resultant clear, colorless mixture was left in the tightly closed cup for 24-36 h to cure at room temperature to get a cured elastomer sample. […]

With `OC[C@H]1O[C@@H]2O[C@H]3[C@H](O)[C@@H](O)[C@@H](O[C@H]4[C@H](O)[C@@H](O)[C@@H](O[C@H]5[C@H](O)[C@@H](O)[C@@H](O[C@H]6[C@H](O)[C@@H](O)[C@@H](O[C@H]7[C@H](O)[C@@H](O)[C@@H](O[C@H]8[C@H](O)[C@@H](O)[C@@H](O[C@H]1[C@H](O)[C@H]2O)O[C@@H]8CO)O[C@@H]7CO)O[C@@H]6CO)O[C@@H]5CO)O[C@@H]4CO)O[C@@H]3CO` [CAVAMAX® W7, β-cyclodextrin] the “appearance of cured elastomer sample” value [1] was “heterogeneous, opaque, with large domain separations”.
For `OC[C@H]1O[C@@H]2O[C@H]3[C@H](O)[C@@H](O)[C@@H](O[C@H]4[C@H](O)[C@@H](O)[C@@H](O[C@H]5[C@H](O)[C@@H](O)[C@@H](O[C@H]6[C@H](O)[C@@H](O)[C@@H](O[C@H]7[C@H](O)[C@@H](O)[C@@H](O[C@H]8[C@H](O)[C@@H](O)[C@@H](O[C@H]9[C@H](O)[C@@H](O)[C@@H](O[C@H]1[C@H](O)[C@H]2O)O[C@@H]9CO)O[C@@H]8CO)O[C@@H]7CO)O[C@@H]6CO)O[C@@H]5CO)O[C@@H]4CO)O[C@@H]3CO` [CAVAMAX® W8, γ-cyclodextrin], the “solubility in DM 5 (appearance of mixture)” value [2] was “heterogeneous and opaque, with gross phase separation”.
With `CC(C)=CCC/C(C)=C/CO` [Geraniol, geraniol] the “temperature at which evaporation (weight loss) starts” value [3] was “approximately 75 °C”, the “temperature at which evaporation is complete” value [3] was “approximately 225 °C” and the “time to complete release of geraniol” value [4] was “a few hours”.
With `COC[C@H]1O[C@@H]2O[C@H]3[C@H](OC)[C@@H](OC)[C@@H](O[C@H]4[C@H](OC)[C@@H](OC)[C@@H](O[C@H]5[C@H](OC)[C@@H](OC)[C@@H](O[C@H]6[C@H](OC)[C@@H](OC)[C@@H](O[C@H]7[C@H](OC)[C@@H](OC)[C@@H](O[C@H]8[C@H](OC)[C@@H](OC)[C@@H](O[C@H]1[C@H](OC)[C@H]2OC)O[C@@H]8COC)O[C@@H]7COC)O[C@@H]6COC)O[C@@H]5COC)O[C@@H]4COC)O[C@@H]3COC` [permethylated β-cyclodextrin] the “solubility in DM 5 (appearance of mixture)” value ([2]; 10 wt. % mixture in BELSIL DM 5 (polydimethylsiloxane, 5 mPa·s), vortex mixer) was “heterogeneous and opaque” and the “appearance of cured elastomer sample” value [1] was “heterogeneous, opaque, with large domain separations”.
In the case of `CC1=CCC2CC1C2(C)C` (stereo not drawn) [pinene, alpha-pinene], the “temperature at which evaporation (weight loss) starts” value [3] is reported as < 30 °C and the “temperature at which evaporation is complete” value [3] is reported as ≤ 140 °C.

Reference: patent publication US20250270394A1, “CYCLODEXTRIN INCORPORATED SILICONE MATERIALS AND THEIR USE AS CARRIERS FOR ACTIVES” (WACKER CHEMIE AG, priority 2022, published 2025)
